This note sets out measurements from patent publication US6734206B1, “3-oxa-8-azaprostaglandin analogs as agents for lowering intraocular pressure” (Allergan, Inc., priority 2003, dated 2004).

For series [1], the target named is T1, hTP (Homo sapiens, UniProt P21731).
T1 construct: expressed in transfected cells
T1 sequence (P21731 1-343): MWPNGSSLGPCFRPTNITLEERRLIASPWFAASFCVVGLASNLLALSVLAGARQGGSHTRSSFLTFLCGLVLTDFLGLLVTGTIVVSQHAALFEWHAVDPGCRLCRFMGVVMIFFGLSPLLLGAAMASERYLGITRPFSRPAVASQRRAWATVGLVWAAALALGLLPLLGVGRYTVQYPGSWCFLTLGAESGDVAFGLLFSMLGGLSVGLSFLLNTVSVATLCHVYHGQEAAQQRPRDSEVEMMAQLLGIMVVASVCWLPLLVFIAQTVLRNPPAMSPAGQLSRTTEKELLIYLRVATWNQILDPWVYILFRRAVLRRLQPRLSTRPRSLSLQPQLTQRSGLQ
Kind of series: Functional data, human TP receptor. The series is classed as cell-based. Particulars: NA = not active. As for the experimental part:
(§1) Plasmids encoding the human EP1, EP2, EP3, EP4, FP, TP, IP and DP receptors were prepared by cloning the respective coding sequences into the eukaryotic expression vector pCEP4 (Invitrogen). The pCEP4 vector contains an Epstein Barr virus (EBV) origin of replication, which permits episomal replication in primate cell lines expressing EBV nuclear antigen (EBNA-1). It also contains a hygromycin resistance gene that is used for eukaryotic selection. The cells employed for stable transfection were human embryonic kidney cells (HEK-293) that were transfected with and express the EBNA-1 protein. These HEK-293-EBNA cells (Invitrogen) were grown in medium containing Geneticin (G418) to maintain expression of the EBNA-1 protein. HEK-293 cells were grown in DMEM with 10% fetal bovine serum (FBS), 250 μg ml^−1 G418 (Life Technologies) and 200 μg ml^−1 gentamicin or penicillin/streptomycin.
(§2) For transfection, the cells were grown to 50-60% confluency on 10 cm plates. The plasmid pCEP4 incorporating cDNA inserts for the respective human prostanoid receptor (20 μg) was added to 500 μl of 250 mM CaCl2. HEPES buffered saline×2 (2×HBS, 280 mM NaCl, 20 mM HEPES acid, 1.5 mM Na2HPO4, pH 7.05-7.12) was then added dropwise to a total of 500 μl, with continuous vortexing at room temperature. After 30 min, 9 ml DMEM were added to the mixture. The DNA/DMEM/calcium phosphate mixture was then added to the cells, which had been previously rinsed with 10 ml PBS. The cells were then incubated for 5 hr at 37° C. in humidified 95% air/5% CO2. The calcium phosphate solution was then removed and the cells were treated with 10% glycerol in DMEM for 2 min. The glycerol solution was then replaced by DMEM with 10% FBS. The cells were incubated overnight and the medium was replaced by DMEM/10% FBS containing 250 μg ml^−1 G418 and penicillin/streptomycin. The following day hygromycin B was added to a final concentration of 200 μg ml^−1.
(§3) Ten days after transfection, hygromycin B resistant clones were individually selected and transferred to a separate well on a 24 well plate. At confluence each clone was transferred to one well of a 6 well plate, and then expanded in a 10 cm dish. Cells were maintained under continuous hygromycin selection until use.

The target of series [2] is T2, hEP4 (Homo sapiens, UniProt P35408).
T2 construct: expressed in transfected cells
T2 sequence (P35408 whole entry): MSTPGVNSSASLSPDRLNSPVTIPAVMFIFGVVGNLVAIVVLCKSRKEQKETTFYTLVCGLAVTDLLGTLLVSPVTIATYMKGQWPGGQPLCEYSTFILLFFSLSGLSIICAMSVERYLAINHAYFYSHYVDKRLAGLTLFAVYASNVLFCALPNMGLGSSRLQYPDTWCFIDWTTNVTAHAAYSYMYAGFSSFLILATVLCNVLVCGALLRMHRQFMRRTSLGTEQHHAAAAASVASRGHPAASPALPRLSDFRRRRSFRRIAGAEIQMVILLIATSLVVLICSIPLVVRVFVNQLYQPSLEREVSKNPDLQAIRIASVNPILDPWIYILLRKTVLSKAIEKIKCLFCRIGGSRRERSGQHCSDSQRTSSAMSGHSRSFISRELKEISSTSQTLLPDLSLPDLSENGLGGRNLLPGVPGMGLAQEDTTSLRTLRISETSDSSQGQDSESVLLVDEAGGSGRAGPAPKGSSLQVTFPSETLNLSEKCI
Put plainly: Functional data, human EP4 receptor. Type of series: cell-based. The following applies: NA = not active. As for the experimental part:
as §1, §2, §3

In series [3] the target is T2, hEP4. Put plainly: Radioligand binding, human EP4 receptor. Particulars: NA = not active. As for the experimental part:
as §1
For transfection, the cells were grown to 50-60% confluency on 10 cm plates. The plasmid pCEP4 incorporating cDNA inserts for the respective human prostanoid receptor (20 μg) was added to 500 μl of 250 mM CaCl2. HEPES buffered saline×2 (2×HBS, 280 mM NaCl, 20 mM HEPES acid, 1.5 mM Na2HPO4, pH 7.05-7.12) was then added dropwise to a total of 500 μl, with continuous vortexing at room temperature. After 30 min, 9 ml DMEM were added to the mixture. The DNA/DMEM/calcium phosphate mixture was then added to the cells, which had been previously rinsed with 10 ml PBS. The cells were then incubated for 5 hr at 37° C. in humidified 95% air/5% CO2. […]
Radioligand binding studies on plasma membrane fractions prepared for cells stably transfected with the cat or human receptor were performed as follows. […] The pellet was then resuspended in TME buffer to provide a final protein concentration of 1 mg/ml, as determined by Bio-Rad assay. […]
The binding of [^3H](N) PGE2 (specific activity 165 Ci/mmol) was determined in duplicate and in at least 3 separate experiments. […] Competition studies were performed using a final concentration of 2.5 or 5 nM [^3H](N) PGE2 and non-specific binding was determined with 10^−5 M unlabelled PGE2.

For series [4], the target named is T3, hEP1 (Homo sapiens, UniProt P34995).
T3 construct: expressed in transfected cells
T3 sequence (P34995 1-402): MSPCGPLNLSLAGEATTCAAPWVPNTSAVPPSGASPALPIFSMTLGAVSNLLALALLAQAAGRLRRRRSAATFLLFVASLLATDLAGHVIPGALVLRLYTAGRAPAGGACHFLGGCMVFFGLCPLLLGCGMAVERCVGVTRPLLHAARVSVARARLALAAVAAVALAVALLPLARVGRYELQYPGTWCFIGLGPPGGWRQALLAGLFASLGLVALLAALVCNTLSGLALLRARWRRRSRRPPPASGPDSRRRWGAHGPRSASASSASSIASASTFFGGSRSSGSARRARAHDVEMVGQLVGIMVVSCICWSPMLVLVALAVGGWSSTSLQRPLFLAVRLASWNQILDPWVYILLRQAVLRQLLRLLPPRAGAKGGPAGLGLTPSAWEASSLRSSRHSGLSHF
Put plainly: Functional data, human EP1 receptor. The series is classed as cell-based. The following applies: NA = not active. As for the experimental part:
as §1, §2
Ten days after transfection, hygromycin B resistant clones were individually selected and transferred to a separate well on a 24 well plate. […]

The target of series [5] is T4, hEP3A (Homo sapiens, UniProt P43115).
T4 construct: expressed in transfected cells
T4 sequence (P43115 1-390): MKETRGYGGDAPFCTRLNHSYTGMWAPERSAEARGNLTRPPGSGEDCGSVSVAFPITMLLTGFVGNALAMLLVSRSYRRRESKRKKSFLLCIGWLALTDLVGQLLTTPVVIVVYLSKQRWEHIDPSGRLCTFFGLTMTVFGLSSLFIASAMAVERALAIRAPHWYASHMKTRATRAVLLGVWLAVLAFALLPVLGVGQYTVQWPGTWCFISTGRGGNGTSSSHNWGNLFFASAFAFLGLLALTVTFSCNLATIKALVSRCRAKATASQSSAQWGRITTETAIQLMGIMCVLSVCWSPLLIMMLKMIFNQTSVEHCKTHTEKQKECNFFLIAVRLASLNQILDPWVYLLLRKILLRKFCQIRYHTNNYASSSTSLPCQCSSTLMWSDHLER
Put plainly: Functional data, human EP3A receptor. Type of series: cell-based. Particulars: NA = not active. As for the experimental part:
as §1
For transfection, the cells were grown to 50-60% confluency on 10 cm plates. The plasmid pCEP4 incorporating cDNA inserts for the respective human prostanoid receptor (20 μg) was added to 500 μl of 250 mM CaCl2. HEPES buffered saline×2 (2×HBS, 280 mM NaCl, 20 mM HEPES acid, 1.5 mM Na2HPO4, pH 7.05-7.12) was then added dropwise to a total of 500 μl, with continuous vortexing at room temperature. After 30 min, 9 ml DMEM were added to the mixture. […]

For series [6], the system named is normotensive dogs. Kind of series: Ocular surface hyperemia in dogs. The series is classed as in vivo, dog. Particulars: topical once daily dosing, 0.1%, 1.5 at 26, 50 and 52 h. As for the experimental part:
(§4) The effects of the compounds of this invention on intraocular pressure may be measured as follows. The compounds are prepared at the desired concentrations in a vehicle comprising 0.1% polysorbate 80 and 10 mM TRIS base. Dogs are treated by administering 25 μl to the ocular surface, the contralateral eye receives vehicle as a control. Intraocular pressure is measured by applanation pneumatonometry. A topical once daily dosing of (4-{(R)-2-[(E)-4-(3-chlorophenyl)-3-hydroxy-but-1-enyl]-5-oxo-pyrrolidin-1-yl}-butoxy)-acetic acid [example 8] […] The maximum ocular surface hyperemia score was 1.5 (1.5 at 26, 50 and 52 h).

Series [7] relates to normotensive dogs. Put plainly: Intraocular pressure in dogs, applanation pneumatonometry. Particulars: topical once daily dosing, 0.1%, at 52 h, normotensive dogs (n=8). The series is classed as in vivo, dog. As for the experimental part: as §4

Regarding `COC(=O)COCCCCN1C(=O)CCC1CCC(=O)Cc1cccc(Cl)c1` (stereo in doubt) [Example 3, (4-{(R)-2-[4-(3-Chlorophenyl)-3-oxo-butyl]-5-oxo-pyrrolidin-1-yl}-butoxy)-acetic Acid Methyl Ester], the 50% effective concentration (EC50) in series [1] and in series [2] was more than 10000 nM each time.

In the case of `O=C(O)COCCCCN1C(=O)CCC1CCC(=O)Cc1cccc(Cl)c1` (stereo in doubt) [Example 4, (4-{(R)-2-[4-(3-Chlorophenyl)-3-oxo-butyl]-5-oxo-pyrrolidin-1-yl}-butoxy)-acetic Acid], the figures for the EC50 in series [1] and in series [2] were more than 10000 nM and 1720 nM, respectively. This molecule also displayed an IC50 in series [3] of 3100 nM.

`COC(=O)COCCCCN1C(=O)CC[C@@H]1CC[C@H](O)Cc1cccc(Cl)c1` (stereo in doubt) [Example 5, (4-{(R)-2-[4-(3-Chlorophenyl)-3-hydroxy-butyl]-5-oxo-pyrrolidin-1-yl}-butoxy)-acetic Acid Methyl Ester]: the EC50 is more than 10000 nM in series [4] and 1780 nM in series [2].

For the molecule `O=C(O)COCCCCN1C(=O)CC[C@@H]1CC[C@H](O)Cc1cccc(Cl)c1` (stereo in doubt) [Example 6, (4-{(R)-2-[4-(3-Chlorophenyl)-3-hydroxy-butyl]-5-oxo-pyrrolidin-1-yl}-butoxy)-acetic Acid], the figures for the EC50 in series [1], in series [4] and in series [2] were more than 10000 nM, 3810 nM and 192 nM, respectively. Also, the IC50 in series [3] is 562 nM.

For `COC(=O)COCCCCN1C(=O)CC[C@@H]1/C=C/C(=O)Cc1cccc(Cl)c1` [Example 1, (4-{(R)-2-[(E)-4-(3-chlorolphenyl)-3-oxo-but-1-enyl]-5-oxo-pyrrolidin-1-yl}-butoxy)-acetic Acid Methyl Ester], the EC50 in series [4] is 721 nM; in series [2], 61 nM.

Turning to `O=C(O)COCCCCN1C(=O)CC[C@@H]1/C=C/C(=O)Cc1cccc(Cl)c1` [Example 2], the values for the EC50 in series [1] and in series [5] were less than 10000 nM and more than 10000 nM, respectively.

Turning to `COC(=O)COCCCCN1C(=O)CC[C@@H]1/C=C/[C@H](O)Cc1cccc(Cl)c1` [Example 7, (4-{(R)-2-[(E)-4-(3-Chlorophenyl)-3-hydroxy-but-1-enyl]-5-oxo-pyrrolidin-1-yl}-butoxy)-acetic Acid Methyl Ester], in series [2], the EC50 is more than 10000 nM.

As for `O=C(O)COCCCCN1C(=O)CC[C@@H]1/C=C/[C@H](O)Cc1cccc(Cl)c1` [Example 8, (4-{(R)-2-[(E)-4-(3-Chlorolphenyl)-3-hydroxy-but-1-enyl]-5-oxo-pyrrolidin-1-yl}-butoxy)-acetic Acid], the “maximum ocular surface hyperemia score” value in series [6] is 1.5. For the same molecule, in series [7], the “maximum IOP decrease from baseline” value was determined as 4.9 mmHg and the “maximum IOP decrease from baseline (percent)” value is reported as 26.6%. In addition, the half-maximal effective concentration (EC50) in series [1] is more than 10000 nM. In series [2], this molecule came in with a concentration giving a half-maximal response (EC50) of 11 nM. This molecule returned an IC50 in series [3] of 30 nM.
